# Experimental data: patent US11897918B2, “Compositions and methods to increase production” (priority 2014, dated 2024)
# Experiments:
# [1] = tested on: virus-infected host cell culture; format: cell-based, influenza; details: versus control without compound
# [2] = tested on: B/Massachusetts/2/2012 (low-expressing); assay: ambr15 mini-bioreactor and shake flask comparison, B strain; format: cell-based, influenza B; details: CDM and DM134 media, shake flasks and 15 ml bioreactors
# Method: The two lead compounds were further tested in the commercially available small-scale bioreactor system, ambr15™ (TAP Biosystems). The ambr15 system mimics the characteristics of classical bioreactors at microscale (10-15 ml), controlled by an automated workstation, which enables the rapid evaluation of multiple bioreactor cultures at microscale.
# To test both lead compounds were tested side-by-side under controlled conditions, with two infection media formulations (DM134 and CDM) and two flu strains, A/Victoria/361/2011 (IVR-165) (high-expressing) and B/Massachusetts/2/2012 (low-expressing). The infection parameters used in the experiment were as follows: seeding density was 1.0×10^6 cells/ml or 2.5×10^6 cells/mL; pH was 7.1+/−0.02 (pH control by dual control with 0.05N NaOH and CO2 gas); DO was 50% (range 50-80%), controlled by O2 gas; agitation was 1000 rpm (local control); temperature was 34.0° C., locally monitored with bioreactor controller probe; vessel type was Spargeless, extended temperature vessels; and, aeration rate during run was 1 mL/min.
# The quantification of HA was carried out by ELISA then was subsequently confirmed by HPLC. It was also shown that AFZ077 was able to boost HA yield in the DM134 medium with both low (1×10^6 per mL) and high (2.5×10^6 per mL) infection cell densities in this system. […] Overall, greater enhancement effect seen for low-expressing strains. […]
# cellular cholesterol = assay: Total cellular cholesterol (Amplex Red); format: cell-based; details: normalized to DMSO
# Method: Possible effects of BYF589 as well as various enzyme inhibitors of the pathway on the cell viability and total cellular cholesterol levels were examined. Tested samples included DMSO, BYF589 (1 μM), MEV (100 μM), FTI (0.5 μM), ZA (1 μM) and GTI (0.5 μM).
# Free cholesterol is oxidized by cholesterol oxidase to form a cholesterol ketone and H2O2, which then reacts with Amplex Red+HRP to produce the fluorescent product resorufin.
# MDCK cells = assay: Cell viability, VI-CELL trypan blue exclusion; format: cell-based; details: monitored up to 60 hrs
# Method: Cell viability assays were performed using MDCK cells treated with 1 uM sulphonamide or DMSO control. Cell viability was monitored over time up to 60 hrs using a VI-CELL machine (Beckman Coulter)(cell viability measured based on trypan blue exclusion). The sulphonamide analog used herein is not a marketed drug, therefore toxicity was conducted to identify cell viability over the course of incubation at the highest tested concentration of 10 μM and 60 hours of contact. […] At least 91% viability is detected in cells treated with sulphonamide.
# MDCK 33016PF cells = details: 24 hours; BYF589 1 μM, MEV 100 μM, FTI 0.5 μM, ZA 1 μM, GTI 0.5 μM
smiles,measurement,setting,value
"O=C(O)C[C@H](O)C[C@H](O)/C=C/c1c(C2CC2)nc2ccccc2c1-c1ccc(F)cc1 [Compound G, (3R, 5S, 6E)-7-[2-cyclopropyl-4-(4-fluorophenyl)-quinolin-3-yl)-3,5-dihydroxyhept-6-enoic acid]","increase in HA yield at 24 hours, compound added at T=2, 4",[1],no significant enhancement in HA yield
same,"increase in HA yield at 24 hours, compound added at T=6",[1],no significant enhancement in HA yield
same,"increase in HA yield at 24 hours, compound added at time of infection (T=0)",[1],approximately 4 fold
same,"HA yield enhancement, low-expressing B strain",[2],boosts HA yield
same,"cellular cholesterol levels, compound alone",cellular cholesterol,lower cholesterol
same,impact on cell viability,MDCK cells,Neither sulphonamide nor pitavastatin had a negative impact on cell viability
same,effect on cell viability,MDCK 33016PF cells,no negative effect on cell viability
